In patent US9265771B2, “Method for treating Lyme disease” (Zoetis Services LLC, priority 2012, dated 2016):

Legend:
[1] = canine; cited from earlier work
B. burgdorferi [2] = experiment: Study A: Quantitative C6 (QC6) antibody ELISA in tick-infected dogs; assay type: in vivo, beagle dogs; settings: Convenia Rx Days 83 and 97
Text: Three outer surface proteins (Osp) on B. burgdorferi are important for diagnosis and prevention, and are expressed by the organism in response to its local environment. […] OspF is another surface protein that is generally observed in late-stage disease. The C in […] refers to a 25-amino acid, C6 peptide in the sixth invariable region of an outer membrane lipoprotein (VIsE). Antibody against C6 is highly accurate as a serologic diagnosis of Lyme disease independent of a subject's (e.g., canine) vaccination status. Further, the generation of C6 antibodies implies an active infection with viable spirochetes. Serological methods for detecting B. burgdorfer/Lyme disease were conducted using the IDEXX qualitative SNAP-4Dx ELISA and the Quantitative C6 (Quant C6 or QC6) diagnostic kits, which are enzyme linked immunosorbent assays against the previously described 25-amino-acid C6 peptide. QC6 ELISA data, units/mL, are useful for guidance in initiating and evaluating response to therapy (See Levy S A, O'Connor T P, Hanscom J L, Shields P, et al. Quantitative measurement of a C6 antibody following antibiotic treatment of Borrelia burgdorferi antibody-positive, nonclinical dogs. Clin Vacc Immunol 2008; 15(1):115-119 and Littman M P, Goldstein R E, Labato M A, et al. ACVIM Small Animal Concensus Statement on Lyme Disease in Dogs: Diagnosis, Treatment and Prevention. J Vet Intern Med 2006; 20: 422-434).
Twenty-three adult female beagle dogs were used in this study; all were sero-negative for Borrelia, not vaccinated with any Borrelia spp vaccines, and acclimated at the study facility for seven days prior to any study activities. The study was conducted under National Research Council guidelines (1996. Dogs were randomized to a non-infected control (n=7 dogs) group, or infected groups (n=8 dogs/region) using ticks from two regions of the USA, Region A (New England (NE), i.e., Rhode Island) and Region B (Midwest (MW), i.e., Wisconsin). Dogs were infected on Day 0 with up to 30 Ixodes scapularis ticks per dog. Tick attachment was monitored daily and after nine days, remaining ticks were harvested and all dogs were treated with two topical applications of an approved acaricide observing a 30-day interval between applications. Dogs were monitored 21-days post-challenge for pyrexia, and the entire post-challenge period for clinical signs of Lyme disease (lameness, ataxia, anorexia, lymphadenopathy and depression).
Blood was collected from each dog weekly to Day 28, then every two-weeks for the remainder of the study (166 days). Serum antibodies to Borrelia were assayed using SNAP-4Dx and QC6 ELISA. Two skin punch biopsies were collected near tick attachment sites from each dog every 28 days post-challenge for bacterial culture.
(§1) Comparisons included serology, skin culture results and joint pathology.

[3] = tested on: B. burgdorferi outer surface protein OspC; experiment: Study B: fluorescent-bead-based multiplex assay, antibodies against OspC; assay type: in vivo, beagle dogs; settings: Day 111
Method: Thirty-two (18 male and 14 female) beagle dogs were sero-negative for Borrelia burgdorferi, not vaccinated with any Borrelia spp vaccines, and acclimated at the study facility for seven days. The study was conducted under National Research Council guidelines (1996). […] Field-caught Ixodes from the northeast USA were placed on the dogs without containment chambers for 10 days; after ticks fed to repletion, dogs were treated with two applications of an approved topical acaricide with a 30-day interval between applications.
Forty days post-challenge, and prior to antibiotic treatments, blood was collected from each dog as were two skin biopsy punch samples near tick attachment sites. Blood was collected approximately monthly post-treatment. Skin biopsies were taken near the tick attachment site on Days 48/49, 118, 146, 180, and 315. Serum antibodies to Borrelia were assayed using the IDEXX SNAP-4Dx and QC6 ELISA. In cooperation with Cornell University, serum samples were analyzed using fluorescent-bead-based multiplex assays detecting antibodies against B. burgdorferi outer surface proteins OspA, OspC, and OspF. Data were expressed as median fluorescent intensities (MFI), and shown to be specific and sensitive to provide interpretative guidelines regarding infection. The skin biopsies were collected for a polymerase chain reaction (PCR; FlaB) assay and cultured for spirochete detection. […]

B. burgdorferi [4] = experiment: Study A: joint culture and microscopic pathology of joints and skin; assay type: in vivo, beagle dogs
Method: as §1
Ten joints from each dog were cultured for spirochetes and examined microscopically for changes. Joints included carpus, elbow, shoulder, stifle and tarsus on both the right and left, front and rear limbs. Skin sections were also examined for Lyme disease related changes (pathology). There were six joints from untreated dogs that cultured positive for spirochetes compared to none from dogs treated with Convenia. Microscopically, all untreated, infected dogs had skin sections with inflammatory and other changes as described for Lyme disease, whereas six of eight (75%) treated dogs had similar findings. With the exception of one treated dog with all joints free of pathology, all other dogs had at least two joints showing Lyme disease changes. Despite the microscopic findings, definitively attributing joint pathology to infection or amelioration of pathology as a result of Convenia therapy was equivocal.

[5] = dog, in vivo, sc, 8 mg/kg
Method: On Days 83 and 97, Convenia was administered (8 mg/kg bodyweight; subcutaneous injection). Treated dogs, 8 B. burgdorferi-positive and 4 controls, were compared to untreated cohorts (8 B. burgdorferi-positive, and 3 controls).

CO/N=C(\C(=O)N[C@@H]1C(=O)N2C(C(=O)[O-])=C([C@@H]3CCCO3)CS[C@H]12)c1csc(N)n1.[Na+] [Convenia, (6R,7R)-7-[[(2Z)-(2-amino-4-thiazolyl)(methoxyimino)acetyl]-amino]-8-oxo-3-[(2S)-tetrahydro-2-furanyl]-5-thia-1-azabicyclo[4.2.0]oct-2-ene-2-carboxylic acid, monosodium salt]
Elimination half-life [1]: about 133 hours | Mean QC6 Antibody Levels (B. burgdorferi [2]; Group 4 Control (no ticks), Day 0): 0 U/mL | Mean QC6 Antibody Levels (B. burgdorferi [2]; Group 4 Control (no ticks), Day 7): 0 U/mL | Mean QC6 Antibody Levels (B. burgdorferi [2]; Group 4 Control (no ticks), Day 20): 0 U/mL | Mean QC6 Antibody Levels (B. burgdorferi [2]; Group 4 Control (no ticks), Day 27): 0 U/mL | Mean QC6 Antibody Levels (B. burgdorferi [2]; Group 4 Control (no ticks), Day 41): 0 U/mL | Mean QC6 Antibody Levels (B. burgdorferi [2]; Group 4 Control (no ticks), Day 54): 0 U/mL | Mean QC6 Antibody Levels (B. burgdorferi [2]; Group 4 Control (no ticks), Day 69): 0 U/mL | Mean QC6 Antibody Levels (B. burgdorferi [2]; Group 4 Control (no ticks), Day 83): 0 U/mL | Mean QC6 Antibody Levels (B. burgdorferi [2]; Group 4 Control (no ticks), Day 97): 0 U/mL | Mean QC6 Antibody Levels (B. burgdorferi [2]; Group 4 Control (no ticks), Day 111): 0 U/mL | Mean QC6 Antibody Levels (B. burgdorferi [2]; Group 4 Control (no ticks), Day 125): 0 U/mL | Mean QC6 Antibody Levels (B. burgdorferi [2]; Group 4 Control (no ticks), Day 138): 0 U/mL | Mean QC6 Antibody Levels (B. burgdorferi [2]; Group 4 Control (no ticks), Day 153): 0 U/mL | Mean QC6 Antibody Levels (B. burgdorferi [2]; Group 4 Control (no ticks), Day 166): 0 U/mL | Mean QC6 Antibody Levels (B. burgdorferi [2]; Group 5 NE Ticks, Day 0 (infestation)): 0 U/mL | Mean QC6 Antibody Levels (B. burgdorferi [2]; Group 5 NE Ticks, Day 7 (pre-treatment)): 0 U/mL | Mean QC6 Antibody Levels (B. burgdorferi [2]; Group 5 NE Ticks, Day 20 (pre-treatment)): 148.5 U/mL | Mean QC6 Antibody Levels (B. burgdorferi [2]; Group 5 NE Ticks, Day 27 (pre-treatment)): 148.75 U/mL | Mean QC6 Antibody Levels (B. burgdorferi [2]; Group 5 NE Ticks, Day 41 (pre-treatment)): 239.25 U/mL | Mean QC6 Antibody Levels (B. burgdorferi [2]; Group 5 NE Ticks, Day 54 (pre-treatment)): 209.5 U/mL | Mean QC6 Antibody Levels (B. burgdorferi [2]; Group 5 NE Ticks, Day 69 (pre-treatment)): 270.75 U/mL | Mean QC6 Antibody Levels (B. burgdorferi [2]; Group 5 NE Ticks, Day 83 (first dose)): 122 U/mL | Mean QC6 Antibody Levels (B. burgdorferi [2]; Group 5 NE Ticks, Day 97 (second dose)): 99.5 U/mL | Mean QC6 Antibody Levels (B. burgdorferi [2]; Group 5 NE Ticks, Day 111): 48.25 U/mL | Mean QC6 Antibody Levels (B. burgdorferi [2]; Group 5 NE Ticks, Day 125): 20.5 U/mL | Mean QC6 Antibody Levels (B. burgdorferi [2]; Group 5 NE Ticks, Day 138): 7.75 U/mL | Mean QC6 Antibody Levels (B. burgdorferi [2]; Group 5 NE Ticks, Day 153): 4.25 U/mL | Mean QC6 Antibody Levels (B. burgdorferi [2]; Group 5 NE Ticks, Day 166): 3 U/mL | Mean QC6 Antibody Levels (B. burgdorferi [2]; Group 6 MW Ticks, Day 0 (infestation)): 0 U/mL | Mean QC6 Antibody Levels (B. burgdorferi [2]; Group 6 MW Ticks, Day 7 (pre-treatment)): 0 U/mL | Mean QC6 Antibody Levels (B. burgdorferi [2]; Group 6 MW Ticks, Day 20 (pre-treatment)): 66.5 U/mL | Mean QC6 Antibody Levels (B. burgdorferi [2]; Group 6 MW Ticks, Day 27 (pre-treatment)): 155 U/mL | Mean QC6 Antibody Levels (B. burgdorferi [2]; Group 6 MW Ticks, Day 41 (pre-treatment)): 147.25 U/mL | Mean QC6 Antibody Levels (B. burgdorferi [2]; Group 6 MW Ticks, Day 54 (pre-treatment)): 149.25 U/mL | Mean QC6 Antibody Levels (B. burgdorferi [2]; Group 6 MW Ticks, Day 69 (pre-treatment)): 110.75 U/mL | Mean QC6 Antibody Levels (B. burgdorferi [2]; Group 6 MW Ticks, Day 83 (first dose)): 93.75 U/mL | Mean QC6 Antibody Levels (B. burgdorferi [2]; Group 6 MW Ticks, Day 97 (second dose)): 74.25 U/mL | Mean QC6 Antibody Levels (B. burgdorferi [2]; Group 6 MW Ticks, Day 111): 51.5 U/mL | Mean QC6 Antibody Levels (B. burgdorferi [2]; Group 6 MW Ticks, Day 125): 29 U/mL | Mean QC6 Antibody Levels (B. burgdorferi [2]; Group 6 MW Ticks, Day 138): 22 U/mL | Mean QC6 Antibody Levels (B. burgdorferi [2]; Group 6 MW Ticks, Day 153): 8.25 U/mL | Mean QC6 Antibody Levels (B. burgdorferi [2]; Group 6 MW Ticks, Day 166): 6.5 U/mL | Number of dogs above infected threshold (antibody-OspC) [3]: one | Number of treated dogs with all joints free of pathology (B. burgdorferi [4]; dog, in vivo): one | Number of treated dogs with skin sections with inflammatory and other changes as described for Lyme disease (B. burgdorferi [4]; of eight treated infected dogs): six | Treated dogs with skin sections with inflammatory and other changes as described for Lyme disease (B. burgdorferi [4]; of eight treated infected dogs): 75% | Joints that cultured positive for spirochetes (B. burgdorferi [4]; ten joints per dog, six in untreated dogs): none | Grade of inflammatory changes in joints (B. burgdorferi [4]; untreated dogs: moderate to marked): none to mild | Adverse or unexpected events [5]: No adverse or unexpected events
